Measurements published in patent US20050260715A1, “Efficient methods for producing antimicrobial cationic peptides in host cells” (priority 1998, published 2005).
Where two headings read alike, the source gives them in different places. Square brackets hold non-standard residues; d marks the D form. Ends that are not written are not given here. Peptide text beside a SMILES is read from it. * marks the point of attachment. hSer(lactone) = O=C1OCC[C@@H]1N*; hSer = N[C@@H](CCO)C(=O)O

Assays:
A. calcoaceticus AC2 = tested on: A. calcoaceticus AC2
Protocol: (§1) In the present case, the antimicrobial activities of MBI-11B7CN, MBI-11B7HSL (homoserine lactone form) and MBI-11B7HS (homoserine form) were tested against various gram-negative and gram-positive strains, including antibiotic resistant strains. The assay was performed as described in “Methods for Dilution Antimicrobial Susceptibility Tests for Bacteria That Grow Aerobically-Fourth Edition; Approved Standard” NCCLS document M7-A4 (ISBN 1-56238-309-4) Vol. 17, No. 2 (1977).
(§2) The antimicrobial activities of the chemically synthesized MBI-11B7CN peptide and recombinant DNA synthesized MBI-11B7HSL (homoserine lactone form) and MBI-11B7HS (homoserine form) peptides were tested against various gram-negative and positive strains of bacteria, including antibiotic resistant strains. The Agarose Dilution Assay was performed as described in “Methods for Dilution Antimicrobial Susceptibility Tests for Bacteria That Grow Aerobically-Fourth Edition; Approved Standard” NCCLS document M7-A4 (ISBN 1-56238-309-4) Vol. 17, No 2 (1977).
(§3) The agarose dilution assay measures antimicrobial activity of peptides and peptide analogues, which is expressed as the minimum inhibitory concentration (MIC) of the peptides.
(§4) In order to mimic in vivo conditions, calcium and magnesium supplemented Mueller Hinton broth is used in combination with a low EEO agarose as the bacterial growth medium. Agarose, rather than agar, is used as the charged groups in agar prevent peptide diffusion through the media. The medium is autoclaved and then cooled to 50° C.-55° C. in a water bath before aseptic addition of anti-microbial solutions. The same volume of different concentrations of peptide solution are added to the cooled molten agarose, which is then poured to a depth of 3-4 mm.
(§5) The bacterial inoculum is adjusted to a 0.5 McFarland turbidity standard (PML Microbiological) and then diluted 1:10 before application on to the agarose plate. The final inoculum applied to the agarose is approximately 10^4 CFU in a 5-8 mm diameter spot. The agarose plates are incubated at 35° C.-37° C. for 16 to 20 hours.

S. aureus SA93 = tested on: S. aureus SA93
Protocol: as §1, §2, §3, §4, §5

K. pneumoniae KP1 = tested on: K. pneumoniae KP1
Protocol: as §1, §2, §3, §4, §5

S. maltophilia SMA2 = tested on: S. maltophilia SMA2
Protocol: as §1, §2, §3, §4, §5

E. faecalis EFS1 = tested on: E. faecalis EFS1
Protocol: as §1, §2, §3, §4, §5

E. cloacae ECL7 = tested on: E. cloacae ECL7
Protocol: as §1, §2, §3, §4, §5

S. epidermidis SE10 = tested on: S. epidermidis SE10
Protocol: as §1, §2, §3, §4, §5

S. aureus SA14 = tested on: S. aureus SA14
Protocol: as §1, §2, §3, §4, §5

S. marcescens SMS3 = tested on: S. marcescens SMS3
Protocol: as §1, §2, §3, §4, §5

E. faecalis EFS8 = tested on: E. faecalis EFS8
Protocol: as §1, §2, §3, §4, §5

E. coli ECO5 = tested on: E. coli ECO5
Protocol: as §1, §2, §3, §4, §5

P. aeruginosa PA4 = tested on: P. aeruginosa PA4
Protocol: as §1, §2, §3, §4, §5

[1] = A. calcoaceticus, organism # AC2, source ATCC, agarose dilution
[2] = S. aureus, organism # SA93, source Bayer, agarose dilution
[3] = K. pneumoniae, organism # KP1, source ATCC, agarose dilution
[4] = S. maltophilia, organism # SMA2, source ATCC, agarose dilution
[5] = E. faecalis, organism # EFS1, source ATCC, agarose dilution
[6] = E. cloacae, organism # ECL7, source ATCC, agarose dilution
[7] = S. epidermidis, organism # SE10, source Chow, agarose dilution
[8] = S. aureus, organism # SA14, source Bayer, agarose dilution
[9] = S. marcescens, organism # SMS3, source ATCC, agarose dilution
[10] = E. faecalis, organism # EFS8, source ATCC, agarose dilution
[11] = E. coli, organism # ECO5, source ATCC, agarose dilution
[12] = P. aeruginosa, organism # PA4, source ATCC, agarose dilution

Compound | MIC (A. calcoaceticus AC2; [1]) [µg/mL] | MIC (S. aureus SA93; [2]) [µg/mL] | MIC (K. pneumoniae KP1; [3]) [µg/mL] | MIC (S. maltophilia SMA2; [4]) [µg/mL] | MIC (E. faecalis EFS1; [5]) [µg/mL] | MIC (E. cloacae ECL7; [6]) [µg/mL] | MIC (S. epidermidis SE10; [7]) [µg/mL] | MIC (S. aureus SA14; [8]) [µg/mL] | MIC (S. marcescens SMS3; [9]) [µg/mL] | MIC (E. faecalis EFS8; [10]) [µg/mL] | MIC (E. coli ECO5; [11]) [µg/mL] | MIC (P. aeruginosa PA4; [12]) [µg/mL] | also measured
CC[C@H](C)[C@H](N)C(=O)N[C@@H](CC(C)C)C(=O)N[C@@H](CCCNC(=N)N)C(=O)N[C@@H](Cc1c[nH]c2ccccc12)C(=O)N1CCC[C@H]1C(=O)N[C@@H](Cc1c[nH]c2ccccc12)C(=O)N[C@@H](Cc1c[nH]c2ccccc12)C(=O)N1CCC[C@H]1C(=O)N[C@@H](Cc1c[nH]c2ccccc12)C(=O)N[C@@H](CCCNC(=N)N)C(=O)N[C@@H](CCCNC(=N)N)C(=O)N[C@@H](CCCCN)C(=O)N[C@H]1CCOC1=O [11B7HSL] (H-ILRWPWWPWRRK-{hSer(lactone)}; N-terminus assumed) | 4 | 1 | 8 | 32 | 1 | >64 | 4 | 1 | >64 | 16 | 8 | >64 | 
CC[C@H](C)[C@H](N)C(=O)N[C@@H](CC(C)C)C(=O)N[C@@H](CCCNC(=N)N)C(=O)N[C@@H](Cc1c[nH]c2ccccc12)C(=O)N1CCC[C@H]1C(=O)N[C@@H](Cc1c[nH]c2ccccc12)C(=O)N[C@@H](Cc1c[nH]c2ccccc12)C(=O)N1CCC[C@H]1C(=O)N[C@@H](Cc1c[nH]c2ccccc12)C(=O)N[C@@H](CCCNC(=N)N)C(=O)N[C@@H](CCCNC(=N)N)C(=O)N[C@@H](CCCCN)C(=O)N[C@@H](CCO)C(=O)O [11B7HS] (H-ILRWPWWPWRRK[hSer]-OH; N-terminus assumed) |  |  |  |  |  |  |  |  |  |  |  |  | MIC (A. calcoaceticus AC2): 2 µg/mL; MIC (S. aureus SA93; SA93): 1 µg/mL; MIC (K. pneumoniae KP1; KP1): 32 µg/mL; MIC (S. maltophilia SMA2; SMA2): 64 µg/mL; MIC (E. faecalis EFS1; EFS1): 2 µg/mL; MIC (E. cloacae ECL7; ECL7): >64 µg/mL; MIC (S. epidermidis SE10; SE10): 8 µg/mL; MIC (S. aureus SA14; SA14): 2 µg/mL; MIC (S. marcescens SMS3; SMS3): >64 µg/mL; MIC (E. faecalis EFS8; EFS8): 32 µg/mL; MIC (E. coli ECO5; ECO5): 32 µg/mL; MIC (P. aeruginosa PA4; PA4): >64 µg/mL
ILRWPWWPWRRK-NH2 [11B7CN] | 2 | 1 | 8 | 32 | 2 | >64 | 2 | 4 | >64 | 16 | 8 | >64 | 
